The values below come from patent US20120122896A1, “2,1,3-BENZOXADIAZOL DERIVATIVES FOR THE INHIBITION OF INFLUENZA A AND B VIRUS AND RESPIRATORY SYNCYTIAL VIRUS REPLICATION” (PIKE PHARMA GMBH, priority 2009, published 2012).

Like-named read-outs stand apart in the source and are kept apart here.

What is called inhibition is the change of the read-out against control, counted positive when it falls. In general, IC50 refers to the point on the concentration scale where inhibition reaches its midpoint.

The test system of one assay is RSV (Long strain). Kind of assay: RSV induced cell death reduction in HEp-2 cells. It counts as cell-based, respiratory syncytial virus. The conditions noted are these: for RSV activity, Maximum inhibition (in words): serial dilution 100 to 0.14 μM, 72 h; for inhibition at 33 µM: HEp-2, read-out: RSV activity, Maximum inhibition.
Assay [1] addresses interaction between PB1 and PA (Influenza A virus, UniProt P03433). Put plainly: biochemical. The class given is binding. The settings on record: for IC50: calculated from inhibition at maximum obtainable concentration where solubility too low, read-out: IC50 [μM] (ELISA); for inhibition at 1000 µM: highest concentration used, read-out: Max. Inhibition (ELISA) at 1000 μM.
[2] abbreviates: human respiratory syncytial virus, HEp-2, read-out: RSV activity, Maximum inhibition.
Where [3] appears, read: human respiratory syncytial virus.
Setting [4] is: human respiratory syncytial virus, HEp-2.

As to `O=[N+]([O-])c1ccc(SCCO)c2nonc12` [PKE076, 2-[(7-nitro-2,1,3-benzoxadiazol-4-yl)thio]ethan-1-ol], in the assay with RSV (Long strain), the “RSV activity, Maximum inhibition (in words)” value was “inactive”.

As for `COc1ccc(Nc2ccc([N+](=O)[O-])c3nonc23)cc1` [PKE119, N-(4-methoxyphenyl)-4-nitro-2,1,3-benzoxadiazol-7-amine], the “inhibition of RSV replication (summary in words)” value (shortened to “inhibition of RSV replication”) in the assay on RSV (Long strain) is on record as “effective”. Also, the inhibition at 11 µM with RSV (Long strain) (setting [2]) was determined as 21%.

Turning to `COc1ccc(CNc2ccc([N+](=O)[O-])c3nonc23)cc1` [PKE130, N-[(4-methoxyphenyl)methyl]-4-nitro-2,1,3-benzoxadiazol-7-amine], in assay [1], the “Active in ELISA” value is reported as “No”. Also, the “inhibition of RSV replication” value in the assay on RSV (Long strain) is “effective”. Also, the inhibition at 33 µM with RSV (Long strain) (setting [3]) was 48%.

Turning to `O=[N+]([O-])c1ccc(Sc2cccc(Cl)c2)c2nonc12` [PKE080, 4-[(3-chlorophenyl)thio]-7-nitro-2,1,3-benzoxadiazole], in assay [1], the IC50 was 60 µM. In addition, the “Active in ELISA” value in assay [1] (prescreening) is “Yes”.

As to `COc1ccc(Nc2ccc([N+](=O)[O-])c3nonc23)cc1` [PKE069, N4-(4-methoxyphenyl)-7-nitro-2,1,3-benzoxadiazol-4-amine], the “Active in ELISA” value in assay [1] (prescreening) is “No”. In the assay on RSV (Long strain), the “RSV activity, Maximum inhibition (in words)” value is “inactive”.

Turning to `O=[N+]([O-])c1ccc(N2CCCC2)c2nonc12` [PKE072, 4-nitro-7-tetrahydro-1H-pyrrol-1-yl-2,1,3-benzoxadiazole], the “Active in ELISA” value in assay [1] is given as “No”. Further, the “inhibition of RSV replication” value with RSV (Long strain) is given as “effective”. The inhibition at 33 µM with RSV (Long strain) (setting [3]) was 44%.

Take `O=[N+]([O-])c1ccc(Sc2ncnc3nc[nH]c23)c2nonc12` [PKE139, 4-nitro-7-(7H-purin-6-ylsulfanyl)-2,1,3-benzoxadiazole]: in assay [1] (prescreening), the “Active in ELISA” value is given as “No”. Besides, in the assay with RSV (Long strain), the “RSV activity, Maximum inhibition (in words)” value is “inactive”.

`O=[N+]([O-])c1ccc(Nc2cccc(F)c2)c2nonc12` [PKE071, N4-(3-fluorophenyl)-7-nitro-2,1,3-benzoxadiazol-4-amine]: in assay [1] (prescreening), the “Active in ELISA” value is “No”. In addition, the “inhibition of RSV replication” value with RSV (Long strain) is “effective”. This compound gave an IC50 with RSV (Long strain) (setting [4]) of 4 µM. The inhibition at 11 µM in the assay with RSV (Long strain) (setting [2]) came out at 73%.

With `CCN(CC)c1cc(Cl)c2nonc2c1[N+](=O)[O-]` [PKE191, 7-chloro-N,N-diethyl-4-nitro-2,1,3-benzoxadiazol-5-amine], the “Active in ELISA” value in assay [1] (prescreening) is “No”. Besides, the “inhibition of RSV replication” value in the assay on RSV (Long strain) was “effective”. The inhibition at 11 µM in the assay with RSV (Long strain) (setting [2]) was 20%.

In the case of `Cc1ccc(Sc2ccc([N+](=O)[O-])c3nonc23)cc1` [PKE068, 4-[(4-methylphenyl)thio]-7-nitro-2,1,3-benzoxadiazole], in assay [1], the half-inhibitory concentration (IC50) is above 1000 µM and the inhibition at 1000 µM is 46%. Besides, the “Active in ELISA” value in assay [1] (prescreening) is on record as “Yes”.

Consider `O=[N+]([O-])c1ccc(Nc2ccccc2)c2nonc12` [PKE118, 4-nitro-N-phenyl-2,1,3-benzoxadiazol-7-amine], for which, in assay [1] (prescreening), the “Active in ELISA” value is listed as “No”. The “inhibition of RSV replication” value with RSV (Long strain) was “effective”. In addition, the inhibition at 11 µM with RSV (Long strain) (setting [2]) was 44%.

In the case of `O=[N+]([O-])c1ccc(Nc2ccc(Cl)cc2)c2nonc12` [PKE120, N-(4-chlorophenyl)-4-nitro-2,1,3-benzoxadiazol-7-amine], the “Active in ELISA” value in assay [1] (prescreening) is given as “No”. For the same compound, in the assay with RSV (Long strain), the “inhibition of RSV replication” value is given as “effective”. The compound also displayed an IC50 in the assay on RSV (Long strain) (setting [4]) of 2 µM. In the assay on RSV (Long strain) (human respiratory syncytial virus, HEp-2, at 3.7 μM, read-out: RSV activity, Maximum inhibition), the inhibition at 3.7 µM amounted to 67%.

On to `Cc1ccccc1Nc1ccc([N+](=O)[O-])c2nonc12` [PKE131, N-(2-methylphenyl)-4-nitro-2,1,3-benzoxadiazol-7-amine], for which the “Active in ELISA” value in assay [1] (prescreening) was “No”. The “inhibition of RSV replication” value with RSV (Long strain) was “effective”. Further, in the assay on RSV (Long strain) (setting [2]), the inhibition at 11 µM stood at 48%.

Turning to `O=[N+]([O-])c1ccc(Nc2ccc(F)cc2)c2nonc12` [PKE070, N4-(4-fluorophenyl)-7-nitro-2,1,3-benzoxadiazol-4-amine], the “Active in ELISA” value in assay [1] (prescreening) is given as “No”. Further, the “inhibition of RSV replication” value in the assay with RSV (Long strain) is reported as “effective”. The IC50 with RSV (Long strain) (setting [4]) turned out to be 4 µM. The inhibition at 11 µM in the assay with RSV (Long strain) (setting [2]) is 75%.

Take `CC(C)(C)c1csc(-c2ccc3nonc3c2)n1` [PKE140, 5-[4-(tert-butyl)-1,3-thiazol-2-yl]-2,1,3-benzoxadiazole]: in assay [1], the half-inhibitory concentration (IC50) was above 1000 µM and the inhibition at 1000 µM came to 34%. Besides, in assay [1] (prescreening), the “Active in ELISA” value is listed as “Yes”. The “RSV activity, Maximum inhibition (in words)” value in the assay with RSV (Long strain) was “inactive”.

Turning to `COc1ccc(S(=O)(=O)OCCSc2ccc([N+](=O)[O-])c3nonc23)cc1` [PKE061, 2-[(7-nitro-2,1,3-benzoxadiazol-4-yl)thio]ethyl 4-methoxybenzene-1-sulfonate], in assay [1], the concentration for half-maximal inhibition (IC50) was above 1000 µM and the inhibition at 1000 µM came to 37%. In addition, the “Active in ELISA” value in assay [1] (prescreening) is listed as “Yes”. Moreover, the “RSV activity, Maximum inhibition (in words)” value with RSV (Long strain) is “inactive”.

As to `O=[N+]([O-])c1ccc(NCc2cccs2)c2nonc12` [PKE073, N4-(2-thienylmethyl)-7-nitro-2,1,3-benzoxadiazol-4-amine], the “Active in ELISA” value in assay [1] is given as “No”. Besides, the “inhibition of RSV replication” value with RSV (Long strain) was “effective”. Also, in the assay with RSV (Long strain) (setting [3]), the inhibition at 33 µM is 42%.

Take `O=C(OCCSc1ccc([N+](=O)[O-])c2nonc12)c1ccccc1` [PKE083, 2-[(7-nitro-2,1,3-benzoxadiazol-4-yl)thio]ethyl benzoate]: in assay [1] (prescreening), the “Active in ELISA” value was “No”. Besides, in the assay on RSV (Long strain), the “RSV activity, Maximum inhibition (in words)” value is “inactive”.

With `Cc1ccc(Nc2ccc([N+](=O)[O-])c3nonc23)cc1` [PKE074, N4-(4-methylphenyl)-7-nitro-2,1,3-benzoxadiazol-4-amine], the “Active in ELISA” value in assay [1] (prescreening) is reported as “No”.

For the compound `Cc1ccc(CSc2ccc([N+](=O)[O-])c3nonc23)cc1` [PKE077, 4-[(4-methylbenzyl)thio]-7-nitro-2,1,3-benzoxadiazole], in assay [1], the 50% inhibitory concentration (IC50) was above 1000 µM and the inhibition at 1000 µM was 33%. For the same compound, in assay [1] (prescreening), the “Active in ELISA” value is “Yes”. The “RSV activity, Maximum inhibition (in words)” value in the assay on RSV (Long strain) was “inactive”.

Regarding `O=[N+]([O-])c1ccc(N2CCN(c3ccccc3)CC2)c2nonc12` [PKE135, 4-nitro-7-(4-phenylpiperazin-1-yl)-2,1,3-benzoxadiazole], the “Active in ELISA” value in assay [1] (prescreening) is recorded as “No”. Also, in the assay on RSV (Long strain), the “RSV activity, Maximum inhibition (in words)” value is “inactive”.

As to `O=C(OCCSc1ccc([N+](=O)[O-])c2nonc12)c1ccc(Cl)cc1Cl` [PKE081, 2-[(7-nitro-2,1,3-benzoxadiazol-4-yl)thio]ethyl 2,4-dichlorobenzoate], the “Active in ELISA” value in assay [1] (prescreening) is “No”.

For the compound `COc1ccc(C(=O)OCCSc2ccc([N+](=O)[O-])c3nonc23)cc1` [PKE082, 2-[(7-nitro-2,1,3-benzoxadiazol-4-yl)thio]ethyl-4-methoxybenzoate], the IC50 in assay [1] is 100 µM. In assay [1] (prescreening), the “Active in ELISA” value was “Yes”.

With `COc1ccc(CSc2ccc([N+](=O)[O-])c3nonc23)cc1` [PKE060, 4-[(4-methoxybenzyl)thio]-7-nitro-2,1,3-benzoxadiazole], the “Active in ELISA” value in assay [1] (prescreening) is recorded as “Yes”.

On to `O=c1[nH]nc(Sc2ccccc2)c2nncn12` [PKE217, 8-phenylsulfanyl-6H-[1,2,4]triazolo[4,3-d][1,2,4]triazin-5-one], for which, in assay [1] (prescreening), the “Active in ELISA” value is reported as “No”.

For the compound `O=[N+]([O-])c1ccc(Sc2ccc(Cl)cc2Cl)c2nonc12` [PKE075, 4-[(2,4-dichlorophenyl)thio]-7-nitro-2,1,3-benzoxadiazole], in assay [1], the 50% inhibitory concentration (IC50) was above 1000 µM and the inhibition at 1000 µM worked out at 35%. Besides, the “Active in ELISA” value in assay [1] (prescreening) is “Yes”.
